Experiment [1] deals with FBXW7^−/− HPAF-II cells. As to the kind of experiment: Dose-response assay (CellTiter-Glo), FBXW7 knockout HPAF-II cells compared with wildtype. It counts as cell-based. As to the method:
(§1) HPAF-II, C33A, SiHa HEK293T cells (ATCC) were grown in DMEM (4.6 g/L D-glucose, L-glutamine)+10% fetal bovine serum+5% Anti-Anti at 37° C. and 5% CO2. Caski cells were grown in RPMI-1640+10% fetal bovine serum+5% Anti-Anti at 37° C. and 5% CO2. For serum starvation, regular growth media was removed, and replaced with DMEM (4.6 g/L D-glucose, L-glutamine)+5% Anti-Anti for 18 h. CHIR99021 was used at 4 nM.
(§2) HPAF-II mutant cells (APC-truncation, AXIN-knockout, FBXW7-knockout) were transfected via electroporation using the Neon system (Thermo) under the following conditions; 2 μg of DNA (sgRNA construct pX330) 1150V, 30 ms and 2 pulses. Cells were allowed to recover for 2 days before the addition of 100 nM LGK-974 to enrich for mutations driving Wnt pathway activation. Cell lines were validated for editing using TIDE (tracking of insertions and deletions (Brinkman et al 2014).
(§3) All cells were seeded in triplicate at 2500 cells/well. The following day, a dose-response treatment of OTS964 (Cayman Chemicals) or AZD6738 (SelleckChem). At 3d and 7d of treatment, respectively cell viability was determined using CellTiter-Glo (Promega) as per manufacturer's instructions.
Background: Cellular ATP, detected with luciferase, serves as a proxy for viable cell number.

Experiment [2] relates to wildtype HPAF-II cells. As to the kind of experiment: Dose-response assay (CellTiter-Glo), wildtype HPAF-II cells. It counts as cell-based. The following applies: FIG. 9. As to the method: as §1, §3
Experiment [3] has as its system C-33-A cells (FBXW7 mutation). As to the kind of experiment: Dose-response assay in cervical cancer cell line panel (Ca-Ski, DoTc2-4510, SiHa, C-33-A). It counts as cell-based. As to the method:
as §1, §3

The test system of experiment [4] is Cervical cancer patient-derived cancer organoids. As to the kind of experiment: Viability of patient-derived cervical cancer organoids (Cell Titer Glo). As to conditions: 7 days treatment, a subset of organoid models, FIGS. 10 and 11.
Experimental: Cervical cancer patient-derived cancer organoids were treated with dose-response of OTS964 for 7 days. Following treatment, organoids were imaged, and viability was measured using Cell Titer Glo.
The test system of experiment [5] is HPAF-II cells. As to the kind of experiment: Clonogenic assay of LGK974 sensitivity in HPAF-II wild type and knockout cells. It counts as cell-based. As for the experimental part:
As validation, each of the genes discovered in this LGK974 positive selection screen were knocked-out in HPAF-II cells and the sensitivity to LGK974 was determined using clonogenic assays. The assay tested HPAF-II wild type cells, HPAF-II wild type cells treated with LGK974, HPAF-II cells with the gene APC knocked out and treated with LGK974, HPAF-II cells expressing a degradation resistant mutant (DegR)-ßCatenin and treated with LGK974, HPAF-II cells with the AXIN gene knocked out and treated with LGK974, and HPAF-II cells with the FBXW7 gene knocked out and treated with LGK974.
as §2

In experiment [6] the test system is HPAF-II cells. As to the kind of experiment: LGK974 treatment of RNF43 mutant HPAF-II cells (proliferation, LD90 dose for CRISPR screen). It counts as cell-based. The text has this: HPAF-II cells harbor a mutation in RNF43 a negative regulator of the Wnt signaling pathway and as a result these cells are exquisitely dependent on the presence of Wnt ligands. […] Genome wide CRISPR-Cas9 screen was used to identify genes underlying PORCN inhibitor sensitivity, specifically, gene knockouts mediating LGK974 resistance. To do this, the RNF43 mutant cell line HPAF-II was transduced with the genome-wide TKO gRNA library and treated with a LD90 dose of the PORCN inhibitor LGK974 (Liu et al 2013). Under these conditions, the vast majority of cells undergo cell cycle arrest, but a few clones bypassed this process and emerged during the selection. Next generation sequencing of the resistant clones identified gRNA targeting several known negative regulators of Wnt signalling—including APC and AXIN1 that re-activated the ßcatenin pathway distal to the receptor complex. […]
HPAF-II cells were infected with the Toronto knockout library version 1 (TKOv1)—a pooled sgRNA lentiviral library (Hart et al2015) at a multiplicity of infection of 0.3, in the presence of 8 μg/ml polybrene (Sigma) for 24 h. […] Sequenced gRNAs were mapped to the TKOv1 library using MaGECK 0.5.3, and read counts were normalized by total reads per sample before averaging biological replicates and determining gRNA enrichment.

The subject of experiment [7] is CCNL1. As to the kind of experiment: Western blot of CCNL1 levels after GSK3 inhibitor treatment. As to conditions: CHIR99021 used at 4 nM, FIG. 6. It counts as cell-based. As for the experimental part: Using the methods of Example 8, a co-expression analysis followed by cycloheximide chase illustrated the effect of FBXW7 expression on CCNL1 stability. […] Mutation in the substrate-recognition domain of FBXW7 lead to a robust stabilization of CCNL1 levels.
as §1
All samples were lysed in 4× Laemmli Sample Buffer (50 mM Tris-HCl pH 6.8, 2% SDS, 10% glycerol, 1% β-mercaptoethanol, 12.5 mM EDTA, 0.02% bromophenol blue). Lysates were sonicated, boiled, and centrifuged to pellet insoluble material. Approx 10 μg were loaded per sample on a 4-15% SDS-PAGE Stain-Free TGX BioRad precast gel. Gels were run at 150V for approximately 60 minutes. Gels were transferred to methanol-activated PVDF at 90V for 120 minutes. Membranes were blocked in 5% milk in Tris-buffered Saline (pH 7.4)+1% Tween-20 (TBS-T) for 1 hr, and incubated with corresponding primary antibodies overnight. […]
(In general: Immunoblotting shows a protein as a band on a membrane.)

Entries after “also recorded” stand apart in the source; their conditions may differ.

Turning to `Cc1cc(O)c(-c2ccc([C@@H](C)CN(C)C)cc2)c2c1[nH]c(=O)c1sccc12` [OTS964, 9-[4-[(1R)-2-(dimethylamino)-1-methylethyl]phenyl]-8-hydroxy-6-methyl-thieno[2,3-c]quinolin-4(5H)-one], the “sensitivity of FBXW7 mutant cells to CDK11 inhibition relative to wildtype” value in experiment [1] (FBXW7^−/− vs wildtype HPAF-II cells, proliferation, FIG. 9) is on record as “at least 5 times”. The “proliferation response to OTS964, FBXW7 knockout vs wild type cells” value in experiment [1] (HPAF-II, 3d treatment, FIG. 9) is on record as “striking increase in sensitivity; also recorded: hypersensitive”. Besides, the “dose at which inhibition in wildtype cells was seen (only at the highest dose tested)” value in experiment [2] came to 1 µM. In addition, the “OTS964 dose response in cervical cancer cell line panel” value in experiment [3] (C-33-A vs Ca-Ski, DoTc2-4510, SiHa, FIG. 14A) is recorded as “hypersensitive”. Further, the “relative viability of cervical cancer organoids under OTS964” value in experiment [4] was “sensitive”.
Regarding `C[C@@H]1COCCN1c1cc(C2([S@](C)(=N)=O)CC2)nc(-c2ccnc3[nH]ccc23)n1` [AZD6738, (R)-imino(methyl)(1-(6-((R)-3-methylmorpholino)-2-(1H-pyrrolo[2,3-b]pyridin-4-yl)pyrimidin-4-yl)cyclopropyl)-I6-sulfanone], the “cell viability under AZD6738, FBXW7^−/− vs wildtype HPAF-II” value in experiment [1] (7d treatment, FIG. 15B) is “much more susceptible; also recorded: hypersensitivity”. The “enhanced activity in C33A compared to Caski and SiHa cell lines” value in experiment [3] (AZD6738, FIG. 15D) is reported as 4-6 fold. The “cell viability under AZD6738 in cervical cancer cell line panel” value in experiment [3] (C33A, FIG. 15D) is on record as “highest susceptibility; also recorded: highly susceptible”.
For `Cc1cc(-c2ncc(CC(=O)Nc3ccc(-c4cnccn4)cn3)cc2C)ccn1` [LGK974], the “growth under LGK974 after knockout of APC and AXIN1” value in experiment [5] (APC and AXIN1 knockout HPAF-II) is recorded as “fully rescued the growth”. The “resistance to LGK974 after knockout of FBXW7” value in experiment [5] (FBXW7 knockout HPAF-II) was “partial resistance”. Besides, the “growth of HPAF-II wildtype cells under LGK974” value in experiment [5] (wildtype (RNF43 mutation)) was “robustly arrested the growth”. Moreover, the LD90 dose in experiment [6] (HPAF-II cells, positive selection screen) is 20 nM. Moreover, in experiment [6] (RNF43 mutant HPAF-II), the “effect of LGK974 treatment on HPAF-II cells” value was “cell cycle arrest and strong inhibition of proliferation”.
As to `Cc1c[nH]c(-c2cnc(NCCNc3ccc(C#N)cn3)nc2-c2ccc(Cl)cc2Cl)n1` [CHIR99021], the “CCNL1 levels after treatment with GSK3 inhibitor” value in experiment [7] is “increased levels of CCNL1”.

The values are drawn from patent publication US20230042367A1, “METHODS AND COMPOSITIONS FOR TREATING CANCERS HAVING F-BOX AND WD-REPEAT PROTEIN 7 (FBXW7) ALTERATIONS AND/OR CYCLIN L1 (CCNL1) GAIN OR AMPLIFICATION” (THE GOVERNING COUNCIL OF THE UNIVERSITY OF TORONTO, priority 2019, published 2023).
